Reference: paper PMC5413906, “Structural and functional analysis of Oceanobacillus iheyensis macrodomain reveals a network of waters involved in substrate binding and catalysis” (Open Biology, 2017)

Key:
Format in all cases: binding
[1] = target: T1, OiMacroD (Oceanobacillus iheyensis, UniProt Q8EP31); assay: thermal shift, SYPRO Orange; conditions: 50 mM sodium phosphate pH 7.0, 1 mM ligand; without ligand Tm = 41.7 ± 0.2 °C
T1 construct: gene OB2288

[2] = target: T1, OiMacroD; assay: X-ray crystal structure, […] Å; conditions: crystal soaked with 20 mM ADP; active site, two alternative conformations
[3] = target: T1, OiMacroD; assay: thermal shift, SYPRO Orange; conditions: 50 mM sodium phosphate pH 7.0, 1 mM ligand; without ligand Tm = 41.7 ± 0.2 °C; remark: listed apart in the source
[4] = target: T1, OiMacroD; assay: thermal shift, SYPRO Orange; conditions: 50 mM sodium phosphate pH 7.0, 1 mM ligand; without ligand Tm = 41.7 ± 0.2 °C; remark: listed apart in the source
[5] = target: T1, OiMacroD; assay: X-ray crystal structure, […] Å; conditions: crystal soaked with 20 mM ADPr; active site
[6] = target: T2, OiMacroD (Oceanobacillus iheyensis, UniProt Q8EP31, G37V); assay: X-ray crystal structure, […] Å; conditions: crystal soaked with 20 mM ADPr; active site
T2 construct: gene OB2288
T2 sequence (Q8EP31 entry or part of it G37V): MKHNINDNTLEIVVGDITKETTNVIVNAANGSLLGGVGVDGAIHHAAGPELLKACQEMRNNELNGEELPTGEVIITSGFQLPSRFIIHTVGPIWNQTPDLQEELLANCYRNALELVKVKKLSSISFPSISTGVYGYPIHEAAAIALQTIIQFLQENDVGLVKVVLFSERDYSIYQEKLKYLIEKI

T1 sequence (Q8EP31 entry or part of it): as the sequence (Q8EP31 entry or part of it G37V) above, with V37G counted along it

## Nc1ncnc2c1ncn2[C@@H]1O[C@H](COP(=O)(O)OP(=O)(O)O)[C@@H](O)[C@H]1O [ADP]
[1]
  Tm with 1 mM ADP: 44.0 ± 0.2 °C
[2]
  X-ray crystal structure, 1.75 Å: OiMacroD-ADP (5L9Q)

## Nc1ncnc2c1ncn2[C@@H]1O[C@H](COP(=O)(O)O)[C@@H](O)[C@H]1O [AMP]
[3]
  Tm with 1 mM AMP: 43.3 ± 0.1 °C

## Nc1ncnc2c1ncn2[C@@H]1O[C@H](COP(=O)(O)OP(=O)(O)OC[C@H]2OC(O)[C@H](O)[C@@H]2O)[C@@H](O)[C@H]1O (stereo partly drawn) [ADP-ribose]
[4]
  Tm with 1 mM ADPr: 47.8 ± 0.1 °C
[5]
  X-ray crystal structure, 1.77 Å: OiMacroD-ADPr (5L9K)
[6]
  X-ray crystal structure, 1.35 Å: OiMacroD G37V (ADPr) (5LAU)
